The record followed here is ChEMBL document CHEMBL1158721, “Brasilibactin A, a cytotoxic compound from actinomycete Nocardia brasiliensis” (J Nat Prod, 2005).

Common to all, as to assay type: functional, cell-based
The subject of one assay is L1210. Description: Cytotoxicity against mouse L1210 cells.
Another assay deals with KB. Description: Cytotoxicity against human KB cells.
The next assay concerns HL-60. Description: Induction of apoptosis in human HL60 cells assessed as increase in caspase3 activity.

In brackets after ≈: the same amount, converted by molar mass.

`CCCCCCCCCCCCCCC[C@H](OC(=O)[C@@H](CCCCN(O)C=O)NC(=O)[C@H]1COC(c2ccccc2O)=N1)[C@@H](C)C(=O)N[C@@H]1CCCCN(O)C1=O` [BRASILIBACTIN A]: the values for the IC50 with L1210 and in the assay with KB were 0.02 µg/mL (≈ 0.0249 µM) and 0.04 µg/mL (≈ 0.0499 µM), respectively. Also, the Activity result in the assay with HL-60 is “Dose-dependent effect”.
